This is an account of results in ChEMBL document CHEMBL4387740, “Discovery of ABT-957: 1-Benzyl-5-oxopyrrolidine-2-carboxamides as selective calpain inhibitors with enhanced metabolic stability” (Bioorg Med Chem Lett, 2019).

Data set [1] has as its target T1, Calpain-1 catalytic subunit (Homo sapiens, UniProt P07384).
T1 sequence (P07384 whole entry): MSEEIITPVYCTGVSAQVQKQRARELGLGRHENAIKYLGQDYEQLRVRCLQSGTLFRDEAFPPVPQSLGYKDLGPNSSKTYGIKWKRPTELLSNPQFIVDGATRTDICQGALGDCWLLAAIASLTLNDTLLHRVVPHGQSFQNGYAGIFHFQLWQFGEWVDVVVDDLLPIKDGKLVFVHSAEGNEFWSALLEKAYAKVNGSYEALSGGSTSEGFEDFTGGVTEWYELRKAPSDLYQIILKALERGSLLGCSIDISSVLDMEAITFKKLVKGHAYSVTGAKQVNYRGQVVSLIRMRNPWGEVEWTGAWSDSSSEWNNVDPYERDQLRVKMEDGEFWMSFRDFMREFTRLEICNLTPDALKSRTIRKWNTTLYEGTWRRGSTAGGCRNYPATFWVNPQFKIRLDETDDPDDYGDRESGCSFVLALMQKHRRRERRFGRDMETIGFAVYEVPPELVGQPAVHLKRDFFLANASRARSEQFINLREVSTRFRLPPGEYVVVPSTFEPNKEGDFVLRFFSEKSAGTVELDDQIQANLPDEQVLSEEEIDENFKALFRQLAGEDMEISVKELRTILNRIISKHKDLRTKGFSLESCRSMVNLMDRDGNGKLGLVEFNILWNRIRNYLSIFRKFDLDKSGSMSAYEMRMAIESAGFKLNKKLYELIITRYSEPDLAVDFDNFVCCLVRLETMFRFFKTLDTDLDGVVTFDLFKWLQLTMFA
Description: Inhibition of Cal1 (unknown origin).

The nature of data set [2]: Selectivity ratio, ratio of Ki for CatS (unknown origin) to Ki for Cal1 (unknown origin). Conditions: Homo sapiens.
The species named for data set [3] is Homo sapiens. Description: Selectivity ratio, ratio of Ki for CatB (unknown origin) to Ki for Cal1 (unknown origin).
For data set [4], the species on record is Homo sapiens. The data set can be described thus: Selectivity ratio, ratio of Ki for CatL (unknown origin) to Ki for Cal1 (unknown origin).
Data set [5] in a line: Intrinsic clearance in rat liver microsomes. It counts as ADME, Microsome. The note with it: read-out: CLH.
The species named for data set [6] is Homo sapiens. Description: Selectivity ratio, ratio of Ki for CatK (unknown origin) to Ki for Cal1 (unknown origin).
Data set [7] in a line: Intrinsic clearance in human liver cytosol. It counts as ADME, subcellular. Conditions: read-out: CLH.
The nature of data set [8]: Intrinsic clearance in human liver microsomes. Conditions: read-out: CLH. It counts as ADME, Microsome. On the technique in general: Microsomes from liver hold many membrane-bound enzymes, among them those of drug oxidation.

Broadly, the Ki is a dissociation constant, usually derived from enzyme kinetics or from competition with a known ligand. High values mean weaker binding, low ones tighter binding. For the compound `O=C(NC1CCC1)C(=O)C(Cc1ccccc1)NC(=O)[C@H]1CCC(=O)N1Cc1ccccc1` (stereo partly specified), the affinity in data set [1], expressed as Ki, was 110 nM. The Selectivity ratio in data set [2] was 130; in the data set listed under Homo sapiens [3], 66; in the data set filed under Homo sapiens [4], 20; in the data set listed under Homo sapiens [6], 27. Moreover, the figures for the microsomal CLint in data set [5], in data set [7] and in data set [8] were above 100 µL/min/mg, 1 µL/min/mg and 37 µL/min/mg, respectively.

For `CCNC(=O)C(=O)C(Cc1ccccc1)NC(=O)[C@H]1CCC(=O)N1Cc1ccccc1` (mixture of isomers), the Ki in data set [1] was 165 nM. For the same compound, the Selectivity ratio in data set [2] was found to be 60; in the data set filed under Homo sapiens [3], 55; in the data set listed under Homo sapiens [4], 44; in the data set filed under Homo sapiens [6], 85. Further, the values for the microsomal CLint in data set [5], in data set [7] and in data set [8] were below 23 µL/min/mg, 4 µL/min/mg and below 23 µL/min/mg, respectively.
